Assay results from patent publication US20060252807A1, “Novel ortho-terphenyl inhibitors of p38 kinase and methods of treating inflammatory disorders” (Kalypsys, Inc., priority 2005, published 2006).
pIC50: −log10 of the molar value.

target: T1, active p38 alpha enzyme (Upstate Biotechnology) (Homo sapiens, UniProt Q16539); test: p38α biochemical assay (ATP turnover, luminescent detection, Cambrex PKlight); conditions: p38α biochemical assay, Table 1 Biological Activity
T1 construct: purchased Upstate Biotechnology
T1 sequence (Q16539 whole entry): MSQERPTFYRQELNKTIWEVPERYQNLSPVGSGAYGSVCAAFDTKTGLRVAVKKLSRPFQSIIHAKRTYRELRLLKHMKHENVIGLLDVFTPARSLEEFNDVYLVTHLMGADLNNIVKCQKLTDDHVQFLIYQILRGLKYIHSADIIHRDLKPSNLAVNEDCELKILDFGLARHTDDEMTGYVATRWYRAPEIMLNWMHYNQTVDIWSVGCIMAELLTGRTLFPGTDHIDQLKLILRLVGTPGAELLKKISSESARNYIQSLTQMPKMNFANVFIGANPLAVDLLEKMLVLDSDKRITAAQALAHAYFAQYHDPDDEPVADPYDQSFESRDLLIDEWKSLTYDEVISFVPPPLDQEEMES
Procedure, shortened: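 Luminescent PKlight readout of total ATP consumption follows a 2 h, 30C kinase reaction. Enzyme and MapkapK2 substrate run with 1.4 uM ATP (final) in buffer containing Mg2+, Ca2+, chelators, glycerol, reducing agent and BSA; test compounds added by pintool from DMSO.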

Molecule	pIC50
CC(C)NC(=O)c1csc(-c2oc(CN3CCN(C(=O)c4ccc(-c5ccc(O)cc5)cc4)CC3)nc2-c2ccc(F)cc2)n1 [Example 528]	≥ 6.00
Cc1cccc(C(=O)NCc2nc(-c3ccc(F)cc3)c(-c3nc(C(=O)NC(C)C)cs3)o2)c1 [Example 121]	< 6.00
CC(C)NC(=O)c1csc(-c2oc(CNC(=O)c3ccc(Cl)cc3Cl)nc2-c2ccc(F)cc2)n1 [Example 252]	≥ 6.00
CC(=O)c1ccccc1C(=O)N1CCN(Cc2nc(-c3ccc(F)cc3)c(-c3nc(C(=O)NC(C)C)cs3)o2)CC1 [Example 407]	≥ 6.00
CCC(=O)C(=O)NCc1onc(-c2ccc(F)cc2)c1-c1nc(C(=O)NC(C)C)cs1 [Example 577]	< 6.00
Cc1ccc(C(=O)NCc2nc(-c3ccc(F)cc3)c(-c3nc(C(=O)NC(C)C)cs3)o2)cc1C [Example 139]	< 6.00
CC(C)NC(=O)c1csc(-c2oc(CNC(=O)c3cccc(O)c3O)nc2-c2ccc(F)cc2)n1 [Example 147]	≥ 6.00
CC(C)NC(=O)c1csc(-c2oc(CNC(=O)CNC(=O)OC(C)(C)C)nc2-c2ccc(F)cc2)n1 [Example 201]	< 6.00
C#CCNC(=O)c1csc(-c2c(-c3ccc(F)cc3)ncn2C)n1 [Example 87, 2-|5-(4-Fluoro-phenyl)-3-methyl-3H-imidazol-4-yl|-thiazole-4-carboxylic acid prop-2-ynylamide]	≥ 6.00
COc1cc(C(=O)NCc2nc(-c3ccc(F)cc3)c(-c3nc(C(=O)NC(C)C)cs3)o2)cc(OC)c1OC [Example 285]	< 6.00
CCCCc1ccc(C(=O)NCc2onc(-c3ccc(F)cc3)c2-c2nc(C(=O)NC(C)C)cs2)cc1 [Example 683]	< 6.00
CC(C)NC(=O)c1csc(-c2c(-c3ccc(F)cc3)noc2CNC(=O)C(NC(=O)OC(C)(C)C)C(C)C)n1 (stereo not shown) [Example 773]	< 6.00
Cc1cc(C(=O)NCc2onc(-c3ccc(F)cc3)c2-c2nc(C(=O)NC(C)C)cs2)cc(Cl)n1 [Example 667]	< 6.00
CC(C)NC(=O)c1csc(-c2oc(CN3CCN(C(=O)C4CCCN4C(=O)OC(C)(C)C)CC3)nc2-c2ccc(F)cc2)n1 (stereo not shown) [Example 532]	≥ 6.00
CC(C)NC(=O)c1csc(-c2oc(CN3CCN(C(=O)c4ccccc4Cl)CC3)nc2-c2ccc(F)cc2)n1 [Example 388]	< 6.00
CC(C)NC(=O)c1csc(-c2oc(CN3CCN(C(=O)c4ccc(C#N)cc4)CC3)nc2-c2ccc(F)cc2)n1 [Example 366]	< 6.00
CC(C)NC(=O)c1csc(-c2oc(CN3CCN(C(=O)c4ccccc4C(F)(F)F)CC3)nc2-c2ccc(F)cc2)n1 [Example 486]	< 6.00
Cc1nc(-c2ccc(F)cc2)c(-c2nc(C(=O)NCc3ccc4c(c3)OCO4)cs2)s1 [Example 59, 4′-(4-Fluoro-phenyl)-2′-methyl-|2,5′|bithiazolyl-4-carboxylic acid (benzo|1,3|dioxol-5-ylmethyl)-amide]	≥ 6.00
Cc1cc(C)cc(C(=O)NCc2nc(-c3ccc(F)cc3)c(-c3nc(C(=O)NC(C)C)cs3)o2)c1 [Example 138]	< 6.00
CC(C)NC(=O)c1csc(-c2c(-c3ccc(F)cc3)noc2CNC(=O)c2ccc(N(C)C=O)cc2)n1 [Example 685]	< 6.00
COc1cc(C(=O)NCc2nc(-c3ccc(F)cc3)c(-c3nc(C(=O)NC(C)C)cs3)o2)c([N+](=O)[O-])cc1OC [Example 307]	≥ 6.00
CC(=O)N1CCN(Cc2nc(-c3ccc(F)cc3)c(-c3nc(C(=O)NC(C)C)cs3)o2)CC1 [Example 335]	≥ 6.00

same assay, conditions: p38α kinase; Table 1 Biological Activity

Molecule	pIC50
CC(C)NC(=O)c1csc(-c2c(-c3ccc(F)cc3)noc2CN2CCc3ccccc3C2)n1 [Example 1549]	< 6.00
COc1ccccc1CC(=O)N1CCC(c2[nH]nc(-c3ccc(F)cc3)c2-c2nc(C(=O)NC(C)C)cs2)CC1 [Example 896]	< 6.00
CC(C)NC(=O)c1csc(-c2oc(CN3CCCC(c4ccc(C(F)(F)F)cc4)C3)nc2-c2ccc(F)cc2)n1 (stereo not shown) [Example 1303]	< 6.00
COCCOCn1nc(-c2ccc(F)cc2)c(-c2nc(C=NOC)cs2)c1C (single isomer, unassigned) [Example 2187, 2-|3-(4-Fluoro-phenyl)-1-(2-methoxy-ethoxymethyl)-5-methyl-1H-pyrazol-4-yl|-thiazole-4-carbaldehyde O-methyl-oxime]	< 6.00
CC(C)NC(=O)c1csc(-c2c(-c3ccc(F)cc3)n[nH]c2C2CCN(C(=O)c3c(F)cccc3F)CC2)n1 [Example 871]	< 6.00
CC(C)NC(=O)c1csc(-c2oc(CNC3CCC3)nc2-c2ccc(F)cc2)n1 [Example 1059]	< 6.00
Cc1cccc(NCc2nc(-c3ccc(F)cc3)c(-c3nc(C(=O)NC(C)C)cs3)o2)n1 [Example 1312]	< 6.00
Cc1nc(-c2ccc(F)cc2)c(-c2nc(C(=O)NCC3CC3)cs2)s1 [Example 1715]	≥ 6.00
CC(C)NC(=O)c1csc(-c2c(-c3ccc(F)cc3)noc2CNCc2cc(F)cc(F)c2)n1 [Example 1467]	< 6.00
CC(C)NC(=O)c1csc(-c2oc(CNc3ccc(C(F)(F)F)cc3C(F)(F)F)nc2-c2ccc(F)cc2)n1 [Example 1374]	< 6.00
2-|4-(4-Fluoro-phenyl)-5-oxo-2,5-dihydro-isoxazol-3-yl|-thiazole-4-carboxylic acid isopropyl amide [Example 2181]	< 6.00
CC(C)NC(=O)c1csc(-c2c(-c3ccc(F)cc3)noc2CN(Cc2ccccc2)C(C)C)n1 [Example 1558]	< 6.00
Cc1ccc(C(=O)N2CCC(c3[nH]nc(-c4ccc(F)cc4)c3-c3nc(C(=O)NC(C)C)cs3)CC2)cc1C [Example 853]	< 6.00
CC(C)CC(NC(=O)OC(C)(C)C)C(=O)N1CCC(c2[nH]nc(-c3ccc(F)cc3)c2-c2nc(C(=O)NC(C)C)cs2)CC1 (stereo not shown) [Example 1043]	≥ 6.00
O=C(NCc1ccccc1Cl)c1csc(-c2c(-c3ccc(F)cc3)n[nH]c2C2CCNCC2)n1 [Example 2108]	< 6.00
COc1ccc(OC)c(C(=O)N2CCC(c3[nH]nc(-c4ccc(F)cc4)c3-c3nc(C(=O)NC(C)C)cs3)CC2)c1 [Example 938]	< 6.00
Cc1ccc(NCc2onc(-c3ccc(F)cc3)c2-c2nc(C(=O)NC(C)C)cs2)c(C)c1 [Example 1645]	< 6.00
CCN(C)C(=O)c1csc(-c2sc(C)nc2-c2ccc(F)cc2)n1 [Example 1835]	< 6.00
CC(=O)c1ccc(N2CCN(Cc3onc(-c4ccc(F)cc4)c3-c3nc(C(=O)NC(C)C)cs3)CC2)cc1 [Example 1606]	< 6.00
CC(C)NC(=O)c1csc(-c2c(-c3ccc(F)cc3)noc2CN(C)C)n1 [Example 1508]	< 6.00
CC(C)NC(=O)c1csc(-c2c(-c3ccc(F)cc3)n[nH]c2C2CCN(C(=O)c3ccc([N+](=O)[O-])cc3Cl)CC2)n1 [Example 986]	< 6.00
CC(C)NC(=O)c1csc(-c2c(-c3ccc(F)cc3)noc2CNCCCNC(=O)OC(C)(C)C)n1 [Example 1492]	< 6.00
CCOC(=O)C1CCN(Cc2onc(-c3ccc(F)cc3)c2-c2nc(C(=O)NC(C)C)cs2)CC1 [Example 1562]	< 6.00

Molecule	pIC50
Cc1nc(-c2ccc(F)cc2)c(-c2nc(C(=O)N(C)C(Cc3ccccc3)c3ccccc3)cs2)s1 (stereo not shown) [Example 1939]	< 6.00
Cc1nc(-c2ccc(F)cc2)c(-c2nc(C(=O)NCCC(C)C)cs2)s1 [Example 1725]	≥ 6.00
CC(C)NC(=O)c1csc(-c2oc(CNCCO)nc2-c2ccc(F)cc2)n1 [Example 1057]	< 6.00
CCN(C(=O)c1csc(-c2sc(C)nc2-c2ccc(F)cc2)n1)C(Cc1ccccc1)c1ccco1 (stereo not shown) [Example 1942]	< 6.00
CC(C)NC(=O)c1csc(-c2oc(CNCCc3ccc(Cl)cc3)nc2-c2ccc(F)cc2)n1 [Example 1150]	< 6.00
CC(C)NC(=O)c1csc(-c2oc(CBr)nc2-c2ccc(F)cc2)n1 [Example 1181]	< 6.00
CCN(Cc1nc(-c2ccc(F)cc2)c(-c2nc(C(=O)NC(C)C)cs2)o1)C1CCCCC1 [Example 1218]	< 6.00
Cc1nc(-c2ccc(F)cc2)c(-c2nc(C(=O)N3CC(C)NC(C)C3)cs2)s1 (stereo not shown) [Example 1860]	< 6.00
COc1ccncc1NCc1nc(-c2ccc(F)cc2)c(-c2nc(C(=O)NC(C)C)cs2)o1 [Example 1327]	< 6.00
CC(C)NC(=O)c1csc(-c2c(-c3ccc(F)cc3)noc2CNCc2ccccc2Cl)n1 [Example 1462]	< 6.00
Cc1nc(-c2ccc(F)cc2)c(-c2nc(C(=O)NC3CCc4ccccc43)cs2)s1 (stereo not shown) [Example 1767]	< 6.00
Cc1nc(-c2ccc(F)cc2)c(-c2nc(C(=O)N(C)CCc3ccccn3)cs2)s1 [Example 1878]	< 6.00
C=CCN(C(=O)c1csc(-c2sc(C)nc2-c2ccc(F)cc2)n1)C1CCCCC1 [Example 1881]	< 6.00
CC(CO)NC(=O)c1csc(-c2c(-c3ccc(F)cc3)n[nH]c2C2CCNCC2)n1 (stereo not shown) [Example 2042]	≥ 6.00
Cc1cccc(C(C)C)c1NCc1onc(-c2ccc(F)cc2)c1-c1nc(C(=O)NC(C)C)cs1 [Example 1673]	< 6.00
CC(C)NC(=O)c1csc(-c2c(-c3ccc(F)cc3)noc2CNc2ccc3c(c2)OCCO3)n1 [Example 1677]	< 6.00
Cc1ccc([N+](=O)[O-])c(C(=O)N2CCC(c3[nH]nc(-c4ccc(F)cc4)c3-c3nc(C(=O)NC(C)C)cs3)CC2)c1 [Example 936]	< 6.00
CCOc1ccccc1NC(=O)c1csc(-c2sc(C)nc2-c2ccc(F)cc2)n1 [Example 1990]	< 6.00
CC(C)NC(=O)c1csc(-c2c(-c3ccc(F)cc3)noc2CN2CCCC(c3ccc(C(F)(F)F)cc3)C2)n1 (stereo not shown) [Example 1629]	< 6.00
COc1ccc(C(=O)CNC(=O)c2csc(-c3c(-c4ccc(F)cc4)n[nH]c3C3CCNCC3)n2)cc1 [Example 2154]	< 6.00
CCOC(=O)N1CCN(Cc2onc(-c3ccc(F)cc3)c2-c2nc(C(=O)NC(C)C)cs2)CC1 [Example 1564]	< 6.00
CCOc1ccccc1CNCc1onc(-c2ccc(F)cc2)c1-c1nc(C(=O)NC(C)C)cs1 [Example 1477]	< 6.00
